In patent US20260217708A1, “FUSED BENZAZEPINE DERIVATIVES FOR USE IN THE TREATMENT OF CANCER AND EPILEPSY” (UCB BIOPHARMA SRL, priority 2023, published 2026):

Columns and labels:
system Xc^− [1] = biological target: T1, system Xc^− (Homo sapiens, UniProt Q9UPY5); test: Cystine-induced glutamate release assay; format: cell-based; set-up: endogenous in cells; host or cells: H4 cells; settings: H4 cells, sodium-free HEPES buffer, 50 μM L-Cystine, 2 hours, Amplex Red glutamate readout; for IC50: read-out: pIC50 Cystine-induced glutamate release assay (converted)
T1 sequence (Q9UPY5 1-501): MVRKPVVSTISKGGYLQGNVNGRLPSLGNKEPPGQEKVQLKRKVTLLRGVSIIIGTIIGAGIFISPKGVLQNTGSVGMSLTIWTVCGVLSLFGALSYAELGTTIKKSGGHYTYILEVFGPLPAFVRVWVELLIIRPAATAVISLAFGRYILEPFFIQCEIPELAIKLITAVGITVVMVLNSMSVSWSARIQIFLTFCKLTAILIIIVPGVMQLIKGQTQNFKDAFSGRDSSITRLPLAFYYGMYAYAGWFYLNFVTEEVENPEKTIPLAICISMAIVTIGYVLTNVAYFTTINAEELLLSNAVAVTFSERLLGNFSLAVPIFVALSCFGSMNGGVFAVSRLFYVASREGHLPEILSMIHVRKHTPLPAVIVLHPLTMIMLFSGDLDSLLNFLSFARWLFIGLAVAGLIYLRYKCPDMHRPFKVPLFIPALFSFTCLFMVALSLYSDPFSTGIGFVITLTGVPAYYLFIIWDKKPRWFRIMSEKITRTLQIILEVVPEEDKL
T1 sequence (P08195 1-529 partner): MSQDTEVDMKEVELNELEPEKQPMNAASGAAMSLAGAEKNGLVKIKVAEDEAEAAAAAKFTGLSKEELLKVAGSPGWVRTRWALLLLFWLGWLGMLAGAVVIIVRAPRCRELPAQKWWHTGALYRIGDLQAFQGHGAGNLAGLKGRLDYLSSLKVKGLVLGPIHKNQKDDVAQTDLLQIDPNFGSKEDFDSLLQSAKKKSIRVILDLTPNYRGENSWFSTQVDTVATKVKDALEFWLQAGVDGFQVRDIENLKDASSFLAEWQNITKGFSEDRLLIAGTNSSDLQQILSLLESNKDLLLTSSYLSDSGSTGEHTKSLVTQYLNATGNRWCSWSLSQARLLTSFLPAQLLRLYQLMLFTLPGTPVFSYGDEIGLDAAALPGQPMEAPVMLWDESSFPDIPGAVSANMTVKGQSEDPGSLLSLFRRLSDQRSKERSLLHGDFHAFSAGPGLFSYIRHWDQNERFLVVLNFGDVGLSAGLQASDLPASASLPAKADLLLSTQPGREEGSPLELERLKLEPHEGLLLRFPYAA
Outline: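 IC50 (reported as pIC50) normalized to DMSO 1% and Erastin 50 μM controls, from Amplex Red fluorescence of glutamate exported into supernatant. H4 cells were washed into sodium-free buffer to exclude EAAT transport, then given compound with 50 μM L-cystine for 2 h in the incubator.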

system Xc^− [2] = biological target: T1, system Xc^−; test: [^14C]L-Cystine uptake assay; format: cell-based; set-up: endogenous in cells; host or cells: H4 cells; settings: H4 cells, sodium-free HEPES buffer, 0.5 μM L-[14C]Cystine and 4.5 μM L-Cystine, 1 hour at 37° C.; for IC50: read-out: pIC50 [^14C] L-Cystine uptake assay (converted)
Outline: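 Compound effect is given as pIC50, taken between controls of 1% DMSO and 50 μM Erastin. Human H4 cells were pretreated 15 min with compound in sodium-free buffer, then took up 0.5 μM [14C]cystine with 4.5 μM cold cystine for 1 hour at 37° C, read by scintillation proximity counting.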

| SMILES | IC50 (system Xc^− [1]) [nM] | IC50 (system Xc^− [2]) [nM] | pIC50 Cystine-induced glutamate release assay (system Xc^− [1]) | pIC50 [^14C] L-Cystine uptake assay (system Xc^− [2]) |
| --- | --- | --- | --- | --- |
| Cc1cc2c(c(F)n1)-c1cc(C)nn1CC(=O)N2CC(=O)Nc1ccc(C(F)(F)F)cc1 [#106, 2-(14-fluoro-4,12-dimethyl-8-oxo-5,6,9,13-tetrazatricyclo[8.4.0.0^2,6]tetradeca-1(10),2,4,11,13-pentaen-9-yl)-N-[4-(trifluoromethyl)phenyl]acetamide] | 39.8 to 100 | 100 to 501 |  |  |
| CC1C(=O)N(CC(=O)Nc2ccc(Cl)c(F)c2)c2cc(CO)c(=O)n(C)c2-c2ccccc21 (centres unmarked) [#363, N-(4-chloro-3-fluoro-phenyl)-2-[3-(hydroxymethyl)-1,7-dimethyl-2,6-dioxo-7H-pyrido[3,2-d][3]benzazepin-5-yl]acetamide] | 15.8 to 39.8 | 39.8 to 100 |  |  |
| Cc1cc2c(c(Cl)n1)-c1cccnc1[C@@H](C)C(=O)N2CC(=O)Nc1ccc(C(F)(F)F)cc1 (single isomer, unassigned) [#197, Enantiomer (10R) or (10S) of 2-[3-chloro-5,10-dimethyl-9-oxo-4,8,12-triazatricyclo[9.4.0.0^2,7]pentadeca-1(11),2,4,6,12,14-hexaen-8-yl]-N-[4-(trifluoromethyl)phenyl]acetamide] | < 15.8 | < 15.8 |  |  |
| CC1C(=O)N(CC(=O)Nc2ccc(Cl)c(F)c2)c2ccnc(F)c2-c2cc(F)cnc21 (single isomer, unassigned) [#419, N-(4-chloro-3-fluoro-phenyl)-2-[3,14-difluoro-10-methyl-9-oxo-4,8,12-triazatricyclo[9.4.0.0^2,7]pentadeca-1(15),2,4,6,11,13-hexaen-8-yl]acetamide] | 15.8 to 39.8 | < 15.8 |  |  |
| COc1ccc(NC(=O)CN2C(=O)C(C)c3ncccc3-c3c2cc(C)nc3F)cc1F (centres unmarked) [#131, 2-(3-fluoro-5,10-dimethyl-9-oxo-4,8,12-triazatricyclo[9.4.0.0^2.7]pentadeca-1(11),2(7),3,5,12,14-hexaen-8-yl)-N-(3-fluoro-4-methoxy-phenyl)acetamide] | 39.8 to 100 | 15.8 to 39.8 |  |  |
| Cc1cc2c(cn1)-c1ccnn1CC(=O)N2CC(=O)Nc1ccc(C(F)(F)F)cc1 [#48, 2-(12-methyl-8-oxo-5,6,9,13-tetrazatricyclo[8.4.0.0^2,6]tetradeca-1(10),2,4,11,13-pentaen-9-yl)-N-[4-(trifluoromethyl)phenyl]acetamide] | 100 to 501 | 100 to 501 |  |  |
| Cc1cc2c(c(F)n1)-c1cccnc1[C@@H](O)C(=O)N2CC(=O)Nc1ccc(C(F)(F)F)cc1 (single isomer, unassigned) [#211, Enantiomer (10S) or (10R) of 2-[3-fluoro-10-hydroxy-5-methyl-9-oxo-4,8,12-triazatricyclo[9.4.0.0^2,7]pentadeca-1(11),2(7),3,5,12,14-hexaen-8-yl]-N-[4-(trifluoromethyl)phenyl]acetamide] | < 15.8 | 15.8 to 39.8 |  |  |
| Cc1cc2c(c(Cl)n1)-c1cccnc1C(C)C(=O)N2CC(=O)Nc1ccc(Cl)c(F)c1 (single isomer, unassigned) [#117, 2-[3-chloro-5,10-dimethyl-9-oxo-4,8,12-triazatricyclo[9.4.0.0^2,7]pentadeca-1(15),2(7),3,5,11,13-hexaen-8-yl]-N-(4-chloro-3-fluorophenyl)acetamide] | < 15.8 | < 15.8 |  |  |
| Cc1cc2c(c(C)n1)-c1ccc(Cl)cc1CC(=O)N2CC(=O)Nc1ccc(C(F)(F)F)cc1 [#62, 2-(9-chloro-1,3-dimethyl-6-oxo-7H-pyrido[4,3-d][3]benzazepin-5-yl)-N-[4-(trifluoromethyl)phenyl]acetamide] | 15.8 to 39.8 | < 15.8 |  |  |
| COc1nc(C)cc2c1-c1ccccc1CC(=O)N2CC(=O)Nc1ccc(C(F)(F)F)cc1 [#390, 2-(1-methoxy-3-methyl-6-oxo-7H-pyrido[4,3-d][3]benzazepin-5-yl)-N-[4-(trifluoromethyl)phenyl]acetamide] | 15.8 to 39.8 | 15.8 to 39.8 |  |  |
| Cc1cc2c(c(C(F)F)n1)-c1ccccc1CC(=O)N2CC(=O)Nc1ccc(C(F)(F)F)cc1 (single isomer, unassigned) [#194, Atropisomer aR or aS of 2-[1-(difluoromethyl)-3-methyl-6-oxo-7H-pyrido[4,3-d][3]benzazepin-5-yl]-N-[4-(trifluoromethyl)phenyl]acetamide] |  |  | C (about 7.40 < pIC50 ≤ about 7.80) | D (plC50 > about 7.80) |
| COc1nccc2c1-c1cccnc1C(C)C(=O)N2CC(=O)Nc1ccc(C(F)F)cc1 (single isomer, unassigned) [#298, N-[4-(difluoromethyl)phenyl]-2-[3-methoxy-10-methyl-9-oxo-4,8,12-triazatricyclo[9.4.0.0^2,7]pentadeca-1(15),2(7),3,5,11,13-hexaen-8-yl]acetamide] | < 15.8 | < 15.8 |  |  |
| CC1C(=O)N(CC(=O)Nc2ccc(C(F)F)cc2)c2cc(C3(F)CC3)oc(=O)c2-c2cccnc21 (single isomer, unassigned) [#365, N-[4-(difluoromethyl)phenyl]-2-[5-(1-fluorocyclopropyl)-10-methyl-3,9-dioxo-4-oxa-8,12-diazatricyclo[9.4.0.0^2,7]pentadeca-1(15),2(7),5,11,13-pentaen-8-yl]acetamide] | < 15.8 | 15.8 to 39.8 |  |  |
| CC1C(=O)N(CC(=O)Nc2ccc(C(F)(F)F)cc2)c2cc(F)c(=O)n(C)c2-c2cccnc21 (centres unmarked) [#185, 2-(5-fluoro-3,10-dimethyl-4,9-dioxo-3,8,12-triazatricyclo[9.4.0.0^2,7]pentadeca-1(11),2(7),5,12,14-pentaen-8-yl)-N-[4-(trifluoromethyl)phenyl]acetamide] | 39.8 to 100 | 39.8 to 100 |  |  |
| Cc1cc2c(c(F)n1)-c1ccccc1CC(=O)N2CC(=O)Nc1ccc(C(F)F)cc1 [#134, N-[4-(difluoromethyl)phenyl]-2-(1-fluoro-3-methyl-6-oxo-7H-pyrido[4,3-d][3]benzazepin-5-yl)acetamide] | 39.8 to 100 | < 15.8 |  |  |
| Cc1cc2c(c(F)n1)-c1cccnc1[C@@H](C)C(=O)N2CC(=O)Nc1ccc(Cl)c(Cl)c1 [#150, N-(3,4-dichlorophenyl)-2-[(10R)-3-fluoro-5,10-dimethyl-9-oxo-4,8,12-triazatricyclo[9.4.0.0^2,7]pentadeca-1(11),2(7),3,5,12,14-hexaen-8-yl]acetamide] | 39.8 to 100 | 15.8 to 39.8 |  |  |
| Cc1cc2c(c(F)n1)-c1cccnc1C(C)C(=O)N2CC(=O)Nc1ccc(C#N)c(F)c1 (centres unmarked) [#133, N-(4-cyano-3-fluoro-phenyl)-2-(3-fluoro-5,10-dimethyl-9-oxo-4,8,12-triazatricyclo[9.4.0.0^2,7]pentadeca-1(11),2(7),3,5,12,14-hexaen-8-yl)acetamide] | 39.8 to 100 | 39.8 to 100 |  |  |
| Cc1cc2c(n(C)c1=O)-c1ccnn1C(C)C(=O)N2CC(=O)Nc1ccc(Cl)c(F)c1 (centres unmarked) [#353, N-(4-chloro-3-fluoro-phenyl)-2-(7,12,14-trimethyl-8,13-dioxo-5,6,9,14-tetrazatricyclo[8.4.0.0^2,6]tetradeca-1(10),2,4,11-tetraen-9-yl)acetamide] | 15.8 to 39.8 | 39.8 to 100 |  |  |
| CC1C(=O)N(CC(=O)Nc2ccc(C(F)F)cc2)c2cc(N3CC(F)(F)C3)ccc2-c2cccnc21 (single isomer, unassigned) [#334, 2-[9-(3,3-difluoroazetidin-1-yl)-5-methyl-6-oxo-5H-pyrido[2,3-d][1]benzazepin-7-yl]-N-[4-(difluoromethyl)phenyl]acetamide] | < 15.8 | < 15.8 |  |  |
